Data as given in paper PMC6017454, “A Xylenol Orange-Based Screening Assay for the Substrate Specificity of Flavin-Dependent para-Phenol Oxidases” (Molecules : A Journal of Synthetic Chemistry and Natural …, 2018).

How the values were obtained:
[1] = molecular target: T1, His-VAO (vanillyl alcohol oxidase) (Penicillium simplicissimum, UniProt P56216); assay: flavin absorption spectrum; trichloroacetic acid precipitation; type: binding; conditions: covalent; co-purified
T1 construct: gene VAOA; N-terminal 6xHis tag plus single Gly, tag kept; codon-optimised, E. coli BL21; covalent FAD; VAO predominantly octameric

[2] = molecular target: T2, EUGO-His (eugenol oxidase) (Rhodococcus jostii, UniProt Q0SBK1); assay: as above; type: binding; conditions: covalent; co-purified
T2 construct: gene RHA1_ro03282; E. coli TOP10; covalent FAD; EUGO dimeric
T2 sequence (Q0SBK1 1-526): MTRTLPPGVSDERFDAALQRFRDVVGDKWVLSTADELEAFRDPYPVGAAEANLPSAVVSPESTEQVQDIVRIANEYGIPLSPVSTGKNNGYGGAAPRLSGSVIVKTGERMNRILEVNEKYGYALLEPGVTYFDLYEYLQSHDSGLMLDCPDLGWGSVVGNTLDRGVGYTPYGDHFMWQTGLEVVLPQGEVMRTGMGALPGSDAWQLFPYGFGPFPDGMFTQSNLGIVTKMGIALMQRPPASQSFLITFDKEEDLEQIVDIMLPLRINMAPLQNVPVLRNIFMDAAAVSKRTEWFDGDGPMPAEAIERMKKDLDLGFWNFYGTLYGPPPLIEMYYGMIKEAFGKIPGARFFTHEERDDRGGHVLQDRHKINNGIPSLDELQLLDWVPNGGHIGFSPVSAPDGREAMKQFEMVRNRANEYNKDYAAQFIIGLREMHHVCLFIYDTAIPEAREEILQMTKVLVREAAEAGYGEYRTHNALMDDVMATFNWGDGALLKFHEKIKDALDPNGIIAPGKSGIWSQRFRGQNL

T1 sequence (P56216 whole entry): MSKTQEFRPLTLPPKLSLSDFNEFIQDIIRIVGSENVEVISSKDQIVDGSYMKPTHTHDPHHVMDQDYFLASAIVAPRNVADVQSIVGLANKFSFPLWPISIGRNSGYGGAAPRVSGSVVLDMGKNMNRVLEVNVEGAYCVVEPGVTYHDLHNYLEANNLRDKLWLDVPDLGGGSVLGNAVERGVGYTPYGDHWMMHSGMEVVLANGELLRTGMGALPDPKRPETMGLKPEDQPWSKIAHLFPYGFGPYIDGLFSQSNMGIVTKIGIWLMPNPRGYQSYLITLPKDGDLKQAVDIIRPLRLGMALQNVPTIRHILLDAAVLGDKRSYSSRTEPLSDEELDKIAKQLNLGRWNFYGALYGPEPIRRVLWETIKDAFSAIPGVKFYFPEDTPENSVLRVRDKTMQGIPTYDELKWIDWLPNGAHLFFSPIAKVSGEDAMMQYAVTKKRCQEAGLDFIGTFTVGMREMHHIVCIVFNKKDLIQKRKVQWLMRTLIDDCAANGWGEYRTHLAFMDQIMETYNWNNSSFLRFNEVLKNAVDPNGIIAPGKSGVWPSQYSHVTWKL

## Cc1cc2nc3c(=O)[nH]c(=O)nc-3n(C[C@H](O)[C@H](O)[C@H](O)COP(=O)(O)OP(=O)(O)OC[C@H]3O[C@@H](n4cnc5c(N)ncnc54)[C@H](O)[C@@H]3O)c2cc1C [FAD]
[1]
  flavin absorption spectrum; trichloroacetic acid precipitation: demonstrating that the flavin cofactor is covalently bound to the protein
[2]
  flavin absorption spectrum; trichloroacetic acid precipitation: demonstrating that the flavin cofactor is covalently bound to the protein
